From US6358885B1, “Substituted phenylheterocyclic herbicides” (Mississippi State University, priority 1992, dated 2002)

Key:
Assay in all cases: Test G preemergence/postemergence greenhouse plant response rating 0 to 100
annual bluegrass = format: in vivo, Poa annua; settings: 0 to 100 scale
Method in brief: (§1)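 Greenhouse pots, one species each; non-phytotoxic solvent vehicle. Read-out: visual injury vs untreated, 13–21 DAT. Dash denotes no result.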

bermudagrass = format: in vivo, Cynodon dactylon; settings: 0 to 100 scale
Method in brief: as §1

broadleaf signalgrass = format: in vivo, Brachiaria plantaginea; settings: 0 to 100 scale
Method in brief: as §1

common purslane = format: in vivo, Portulaca oleracea; settings: 0 to 100 scale
Method in brief: as §1

common ragweed = format: in vivo, Ambrosia elatior; settings: 0 to 100 scale
Method in brief: as §1

dallisgrass = format: in vivo, Paspalum dilatatum; settings: 0 to 100 scale
Method in brief: as §1

goosegrass = format: in vivo, Eleusine indica; settings: 0 to 100 scale
Method in brief: as §1

guineagrass = format: in vivo, Panicum maximum; settings: 0 to 100 scale
Method in brief: as §1

itchgrass = format: in vivo, Rottboellia exaltata; settings: 0 to 100 scale
Method in brief: as §1

johnsongrass = format: in vivo, Sorghum halepense; settings: 0 to 100 scale
Method in brief: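 Scoring: visual injury at 13 to 21 days post-application, compared with untreated controls. Planting: one species per pot in greenhouse medium. Dosing: compound in non-phytotoxic solvent, within one day of sowing for preemergence or at 2–4 leaves for postemergence.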

large crabgrass = format: in vivo, Digitaria sanguinalis; settings: 0 to 100 scale
Method in brief: as §1

peanut = format: in vivo, Arachis hypoagaea; settings: 0 to 100 scale
Method in brief: as §1

pitted morningglory = format: in vivo, Ipomoea lacunosa; settings: 0 to 100 scale
Method in brief: as §1

sandbur = format: in vivo, Cenchrus echinatus; settings: 0 to 100 scale
Method in brief: as §1

smooth crabgrass = format: in vivo, Digitaria ischaemum; settings: 0 to 100 scale
Method in brief: as §1

yellow nutsedge = format: in vivo, Cyperus esculentus; settings: Rate 125 g/ha, 0 to 100 scale
Method in brief: as §1

## CCS(=O)(=O)Oc1cc(-c2nn3c(c2Cl)CCCC3)c(F)cc1Cl [Compound 25]
Annual bluegrass; POSTEMERGENCE, Rate 125 g/ha
  Plant response rating, Ann Bluegrass: 0
Annual bluegrass; POSTEMERGENCE, Rate 250 g/ha
  Plant response rating, Ann Bluegrass: 0
Annual bluegrass; PREEMERGENCE, Rate 125 g/ha
  Plant response rating, Ann Bluegrass: 0
Annual bluegrass; PREEMERGENCE, Rate 250 g/ha
  Plant response rating, Ann Bluegrass: 0
bermudagrass; POSTEMERGENCE, Rate 125 g/ha
  Plant response rating, Bermudagrass: 0
bermudagrass; POSTEMERGENCE, Rate 250 g/ha
  Plant response rating, Bermudagrass: 0
bermudagrass; PREEMERGENCE, Rate 125 g/ha
  Plant response rating, Bermudagrass: 0
bermudagrass; PREEMERGENCE, Rate 250 g/ha
  Plant response rating, Bermudagrass: 0
Broadleaf signalgrass; POSTEMERGENCE, Rate 125 g/ha
  Plant response rating, Brdlf Sgnlgrass: 0
Broadleaf signalgrass; POSTEMERGENCE, Rate 250 g/ha
  Plant response rating, Brdlf Sgnlgrass: 0
Broadleaf signalgrass; PREEMERGENCE, Rate 125 g/ha
  Plant response rating, Brdlf Sgnlgrass: 0
Broadleaf signalgrass; PREEMERGENCE, Rate 250 g/ha
  Plant response rating, Brdlf Sgnlgrass: 0
Common purslane; POSTEMERGENCE, Rate 125 g/ha
  Plant response rating, Cmn Purslane: 100
Common purslane; POSTEMERGENCE, Rate 250 g/ha
  Plant response rating, Cmn Purslane: 60
Common purslane; PREEMERGENCE, Rate 125 g/ha
  Plant response rating, Cmn Purslane: 0
Common purslane; PREEMERGENCE, Rate 250 g/ha
  Plant response rating, Cmn Purslane: 0
Common ragweed; POSTEMERGENCE, Rate 125 g/ha
  Plant response rating, Cmn Ragweed: 50
Common ragweed; POSTEMERGENCE, Rate 250 g/ha
  Plant response rating, Cmn Ragweed: 0
Common ragweed; PREEMERGENCE, Rate 125 g/ha
  Plant response rating, Cmn Ragweed: 0
Common ragweed; PREEMERGENCE, Rate 250 g/ha
  Plant response rating, Cmn Ragweed: 0
dallisgrass; POSTEMERGENCE, Rate 125 g/ha
  Plant response rating, Dallisgrass: 0
dallisgrass; POSTEMERGENCE, Rate 250 g/ha
  Plant response rating, Dallisgrass: 0
dallisgrass; PREEMERGENCE, Rate 125 g/ha
  Plant response rating, Dallisgrass: 0
dallisgrass; PREEMERGENCE, Rate 250 g/ha
  Plant response rating, Dallisgrass: 0
goosegrass; POSTEMERGENCE, Rate 125 g/ha
  Plant response rating, Goosegrass: 0
goosegrass; POSTEMERGENCE, Rate 250 g/ha
  Plant response rating, Goosegrass: 0
goosegrass; PREEMERGENCE, Rate 125 g/ha
  Plant response rating, Goosegrass: 0
goosegrass; PREEMERGENCE, Rate 250 g/ha
  Plant response rating, Goosegrass: 0
guineagrass; POSTEMERGENCE, Rate 125 g/ha
  Plant response rating, Guineagrass: 0
guineagrass; POSTEMERGENCE, Rate 250 g/ha
  Plant response rating, Guineagrass: 0
guineagrass; PREEMERGENCE, Rate 125 g/ha
  Plant response rating, Guineagrass: 0
guineagrass; PREEMERGENCE, Rate 250 g/ha
  Plant response rating, Guineagrass: 0
itchgrass; POSTEMERGENCE, Rate 125 g/ha
  Plant response rating, Itchgrass: 0
itchgrass; POSTEMERGENCE, Rate 250 g/ha
  Plant response rating, Itchgrass: 0
itchgrass; PREEMERGENCE, Rate 125 g/ha
  Plant response rating, Itchgrass: 0
itchgrass; PREEMERGENCE, Rate 250 g/ha
  Plant response rating, Itchgrass: 0
johnsongrass; POSTEMERGENCE, Rate 125 g/ha
  Plant response rating, Johnsongrass: 0
johnsongrass; POSTEMERGENCE, Rate 250 g/ha
  Plant response rating, Johnsongrass: 0
johnsongrass; PREEMERGENCE, Rate 125 g/ha
  Plant response rating, Johnsongrass: 0
johnsongrass; PREEMERGENCE, Rate 250 g/ha
  Plant response rating, Johnsongrass: 0
Large crabgrass; POSTEMERGENCE, Rate 125 g/ha
  Plant response rating, Large Crabgrass: 0
Large crabgrass; POSTEMERGENCE, Rate 250 g/ha
  Plant response rating, Large Crabgrass: 0
Large crabgrass; PREEMERGENCE, Rate 125 g/ha
  Plant response rating, Large Crabgrass: 0
Large crabgrass; PREEMERGENCE, Rate 250 g/ha
  Plant response rating, Large Crabgrass: 0
peanut; POSTEMERGENCE, Rate 125 g/ha
  Plant response rating, Peanuts: 0
peanut; POSTEMERGENCE, Rate 250 g/ha
  Plant response rating, Peanuts: 0
peanut; PREEMERGENCE, Rate 125 g/ha
  Plant response rating, Peanuts: 0
peanut; PREEMERGENCE, Rate 250 g/ha
  Plant response rating, Peanuts: 0
Pitted morningglory; POSTEMERGENCE, Rate 125 g/ha
  Plant response rating, Pit Morninglory: 0
Pitted morningglory; POSTEMERGENCE, Rate 250 g/ha
  Plant response rating, Pit Morninglory: 0
Pitted morningglory; PREEMERGENCE, Rate 125 g/ha
  Plant response rating, Pit Morninglory: 0
Pitted morningglory; PREEMERGENCE, Rate 250 g/ha
  Plant response rating, Pit Morninglory: 0
sandbur; POSTEMERGENCE, Rate 125 g/ha
  Plant response rating, S. Sandbur: 0
sandbur; POSTEMERGENCE, Rate 250 g/ha
  Plant response rating, S. Sandbur: 0
sandbur; PREEMERGENCE, Rate 125 g/ha
  Plant response rating, S. Sandbur: 0
sandbur; PREEMERGENCE, Rate 250 g/ha
  Plant response rating, S. Sandbur: 0
Smooth crabgrass; POSTEMERGENCE, Rate 125 g/ha
  Plant response rating, Smooth Crabgras: 0
Smooth crabgrass; POSTEMERGENCE, Rate 250 g/ha
  Plant response rating, Smooth Crabgras: 0
Smooth crabgrass; PREEMERGENCE, Rate 125 g/ha
  Plant response rating, Smooth Crabgras: 0
Smooth crabgrass; PREEMERGENCE, Rate 250 g/ha
  Plant response rating, Smooth Crabgras: 0
Yellow nutsedge; POSTEMERGENCE
  Plant response rating, Yellow Nutsedge: 0
Yellow nutsedge; PREEMERGENCE
  Plant response rating, Yellow Nutsedge: 0
